In one data set the test system is Col1a1 gene. Briefly: Hepatic collagen 1a1 gene knockdown in CCl4 hepatic fibrosis mouse model. The format is in vivo. The settings on record: male Balb/c mouse, Col1a1 siRNA + FVII siRNA 0.1 + 0.1 mg/kg intravenous, liver 4 days after administration, qPCR normalized with GAPDH, vs siRNA non-administration group. The procedure:
(§1) The Col1a1 siRNA-encapsulated lipid nanoparticle was administered at 0.1 mg/kg into the orbital plexus of the vein of each 8-week-old male Balb/c mouse. 3 hours later, CCl4 mixed with corn oil was orally administered at a dose of 0.1 mL/kg (10 mL/kg) by forced single-dose administration (n=6 in each group). 4 days after the administration of the siRNA-encapsulated lipid nanoparticle, the liver was collected from the mouse euthanized under anesthesia, followed by gene expression analysis by quantitative PCR. The Col1a1 gene expression level and the FVII gene expression level were normalized with the expression level of GAPDH. The amount of decrease in Col1a1 gene expression as compared with a siRNA non-administration group was regarded as the rate of knockdown. In mice intravenously given the siRNA-encapsulated lipid nanoparticle formed using the compound of the present invention, the knockdown of the activated stellate cell marker gene Col1a1 gene was strongly observed, as compared with the rate of knockdown of the hepatic parenchymal cell marker gene FVII.
In general terms: Quantitative PCR measures a nucleic acid by following its amplification.

A short description of data set [1]: Analysis of Col1a1 siRNA + FVII siRNA-encapsulated lipid nanoparticle (Production Example 3). The format is physicochemical. The settings on record: for Rate of encapsulation / Particle size: Col1a1 siRNA + FVII siRNA lipid nanoparticle; for Particle size: cationic lipid:DPPC:cholesterol:GS-020=60:10.6:28:1.4; for Col1a1 siRNA + FVII siRNA concentration: lipid nanoparticle dispersion after dialysis and filtration. From the text: (§2) The particle size of the lipid particle (in the composition) can be measured by a known approach. For example, the particle size can be calculated as a Z-average particle size by the cumulant analysis of an autocorrelation function using a particle size measurement apparatus Zetasizer Nano ZS (Malvern Instruments) based on a dynamic light scattering measurement technique. The particle size (average particle size) of the lipid particle (in the composition) is, for example, 10 to 200 nm, preferably 60 to 170 nm.
(§3) The concentration and rate of encapsulation of the nucleic acid (e.g., siRNA or mRNA) in the composition of the present invention can be measured by a known approach. For example, the nucleic acid is fluorescently labeled using Quant-iT™ RiboGreen® (Invitrogen Corp.), and the fluorescence intensity can be measured to determine the concentration and the rate of encapsulation. The concentration of the nucleic acid in the composition can be calculated using a calibration curve prepared from aqueous nucleic acid solutions having known concentrations. The rate of encapsulation can be calculated on the basis of the difference in fluorescence intensity between the presence and absence of addition of Triton-X 100 (surfactant for disrupting the lipid particle). The concentration of the nucleic acid in the composition refers to the total concentration of a nucleic acid encapsulated in the lipid particle and an unencapsulated nucleic acid. The rate of encapsulation refers to the ratio of the nucleic acid encapsulated in the lipid particle to all nucleic acids in the composition.
A lipid mixture (cationic lipid:DPPC:cholesterol:GS-020=60:10.6:28:1.4, molar ratio) was dissolved in 90% of EtOH and 10% of a 25 mM acetate buffer solution (pH 4.0) to obtain a 7.4 mg/ml lipid solution. siRNA against collagen 1a1 (Col1a1) and siRNA against factor VII (FVII) were dissolved in equal weights in a 25 mM acetate buffer solution (pH 4.0) to obtain a 0.15 mg/ml nucleic acid solution. The sequences of Col1a1 siRNA and FVII siRNA were quoted from Hepatology, […], No. 4, 2015, and Silence, Vol. 1, No. 16, 2010, respectively. The obtained lipid solution and nucleic acid solution were mixed at a flow rate ratio of 1 ml/min:5 ml/min using a microfluidic mixing apparatus NanoAssemblr (Precision NanoSystems Inc.) to obtain a dispersion containing a composition. The obtained dispersion was dialyzed against water at room temperature for 1 hour and against PBS at room temperature for 18 hours using Slyde-A-Lyzer (molecular weight cutoff: 20 K, Thermo Fischer Scientific Inc.). Subsequently, the dialysate was filtered through a 0.2 μm syringe filter (Iwaki) and preserved at 4° C. The siRNA-encapsulated lipid nanoparticle was very favorably formed using the compound of the present invention.

The subject of a further data set is FVII gene. The data set can be described thus: Hepatic FVII gene knockdown in CCl4 hepatic fibrosis mouse model. The settings on record: male Balb/c mouse, Col1a1 siRNA + FVII siRNA 0.1 + 0.1 mg/kg intravenous, liver 4 days after administration, qPCR normalized with GAPDH. The format is in vivo. As to the method:
as §1

Data set [2] in a line: Analysis of luciferase mRNA-encapsulated lipid nanoparticle (Production Example 2). The format is physicochemical. The settings on record: for Rate of encapsulation / Average particle size: luciferase mRNA lipid nanoparticle; for mRNA concentration: luciferase mRNA lipid nanoparticle dispersion after dialysis and filtration; for Average particle size: cationic lipid:DPPC:cholesterol:GS-020=60:10.6:28:1.4.
Excerpt: as §2, §3
A lipid mixture (cationic lipid:DPPC:cholesterol:GS-020=60:10.6:28:1.4, molar ratio) was dissolved in 90% of EtOH and 10% of water to obtain an 8.5 mg/ml lipid solution. Luciferase mRNA (TriLink BioTechnologies, Inc.) was dissolved in a 10 mM 2-morpholinoethanesulfonic acid (MES) buffer solution (pH 4.0) to obtain a 0.22 mg/ml nucleic acid solution. The obtained lipid solution and nucleic acid solution were mixed at a flow rate ratio of 3 ml/min:6 ml/min at room temperature using NanoAssemblr apparatus (Precision NanoSystems Inc.) to obtain a dispersion containing a composition. The obtained dispersion was dialyzed against water at room temperature for 1 hour and against PBS at 4° C. for 48 hours using Slyde-A-Lyzer (molecular weight cutoff: 20 K, Thermo Fischer Scientific Inc.). Subsequently, the dialysate was filtered through a 0.2 μm syringe filter (Iwaki) and preserved at 4° C.

Data set [3] has as its system human colorectal cancer-derived cell line HCT116. The data set can be described thus: Transfection of cultured cell with mRNA (luciferase luminescence). The format is cell-based. The settings on record: 10 ng luciferase mRNA, 24 hours. As to the method: A human colorectal cancer-derived cell line HCT116 was cultured at a cell density of 6000 cells/well in a 96-well plate. 24 hours later, 10 μl of the lipid particle containing 10 ng of luciferase mRNA was added to the medium. 24 hours after the addition of mRNA, a reagent of Picagene LT2.0 kit (Toyobo Co., Ltd.) was added to the culture plate of HCT116. The luminescence (count per sec (cps)) of luciferase was measured using a luminescence plate reader EnVision (PerkinElmer, Inc.).

For the compound `CCCCCCCC(=O)OCC(COC(=O)CCCCCCC)(COC(=O)CCCCN(C)C)COC(=O)CCC(CCCCCCC)CCCCCCC` [Example 1, 3-((5-(Dimethylamino)pentanoyl)oxy)-2,2-bis((octanoyloxy)methyl)propyl 4-heptylundecanoate], the “Rate of Col1a1 knockdown” value in the data set with Col1a1 gene is on record as 86%. In data set [1], the Rate of encapsulation is recorded as 98%, the Particle size was 111 nm and the “Col1a1 siRNA + FVII siRNA concentration” value turned out to be 128 µg/mL. Further, in the data set with FVII gene, the “Rate of FVII knockdown” value worked out at 0%. In data set [2], this compound gave a Rate of encapsulation of 96%, a mRNA concentration of 145 µg/mL and an Average particle size of 112 nm. Further, the “Average luminescence (cps) of 3 wells” value in data set [3] (Table 10 (PBS control 293)) is 110733 cps.

As to `CCCCCCCC(=O)OCC(COC(=O)CCCCCCC)(COC(=O)CCCCN(C)C)COC(=O)CCC(CCCC)C(CCCC)CCCC` (stereo not shown) [Example 10, 3-((5-(Dimethylamino)pentanoyl)oxy)-2,2-bis((octanoyloxy)methyl)propyl 4,5-dibutylnonanoate], the “Rate of Col1a1 knockdown” value in the data set on Col1a1 gene worked out at 77%. For the same compound, in data set [1], the Rate of encapsulation was found to be 97%, the Particle size is 101 nm and the “Col1a1 siRNA + FVII siRNA concentration” value stood at 137 µg/mL. Further, in the data set on FVII gene, the “Rate of FVII knockdown” value is recorded as 0%. For the same compound, in data set [2], the Rate of encapsulation came out at 96%, the mRNA concentration came out at 83 µg/mL and the Average particle size was determined as 123 nm. Also, the “Average luminescence (cps) of 3 wells” value in data set [3] (Table 8 (PBS control 1293)) came to 500747 cps. Besides, the “Average luminescence (cps) of 3 wells” value in data set [3] (Table 9 (PBS control 80)) came out at 176813 cps. Besides, the “Average luminescence (cps) of 3 wells” value in data set [3] (Table 10 (PBS control 293)) turned out to be 112893 cps.

With `CCCCCCCC(=O)OCC(COC(=O)CCCCCCC)(COC(=O)CCCCCN(C)C)COC(=O)CCC(CCCC)C(CCCC)CCCC` (stereo not shown) [Example 11, 3-((6-(Dimethylamino)hexanoyl)oxy)-2,2-bis((octanoyloxy)methyl)propyl 4,5-dibutylnonanoate], in the data set with Col1a1 gene, the “Rate of Col1a1 knockdown” value was 77%. Moreover, in data set [1], the Rate of encapsulation came to 97%, the Particle size is given as 91 nm and the “Col1a1 siRNA + FVII siRNA concentration” value was determined as 320 µg/mL. Besides, the “Rate of FVII knockdown” value with FVII gene stood at 21%. Besides, in data set [2], the Rate of encapsulation stood at 93%, the mRNA concentration was 78 µg/mL and the Average particle size worked out at 122 nm. Further, the “Average luminescence (cps) of 3 wells” value in data set [3] (Table 8 (PBS control 1293)) worked out at 572560 cps.

On to `CCCCCCCC(=O)OCC(COC(=O)CCCCCCC)(COC(=O)CCCCN(C)C)COC(=O)CCC(CCCCC)C(CCCCC)CCCCC` (stereo not shown) [Example 13, 3-((5-(Dimethylamino)pentanoyl)oxy)-2,2-bis((octanoyloxy)methyl)propyl 4,5-dipentyldecanoate], for which, in the data set with Col1a1 gene, the “Rate of Col1a1 knockdown” value amounted to 86%. In addition, in data set [1], the Rate of encapsulation is listed as 97%, the Particle size is reported as 103 nm and the “Col1a1 siRNA + FVII siRNA concentration” value is 122 µg/mL. Further, the “Rate of FVII knockdown” value in the data set with FVII gene is reported as 15%. In data set [2], this compound returned a Rate of encapsulation of 99%, a mRNA concentration of 155 µg/mL and an Average particle size of 119 nm. For the same compound, in data set [3] (Table 9 (PBS control 80)), the “Average luminescence (cps) of 3 wells” value was 269467 cps.

With `CCCCCCCCCC(=O)OCC(COC(=O)CCCCCCCCC)(COC(=O)CCCCN(C)C)COC(=O)CCC(CCCC)C(CCCC)CCCC` (stereo not shown) [Example 14, 2-(((4,5-Dibutylnonanoyl)oxy)methyl)-2-(((5-(dimethylamino)pentanoyl)oxy)methyl)propane-1,3-diyl didecanoate], the “Rate of Col1a1 knockdown” value in the data set on Col1a1 gene was 76%. For the same compound, in data set [1], the Rate of encapsulation is recorded as 96%, the Particle size turned out to be 97 nm and the “Col1a1 siRNA + FVII siRNA concentration” value stood at 126 µg/mL. For the same compound, in the data set on FVII gene, the “Rate of FVII knockdown” value was found to be 16%. Further, in data set [2], the Rate of encapsulation is recorded as 94%, the mRNA concentration is 134 µg/mL and the Average particle size was 88 nm. Also, in data set [3] (Table 10 (PBS control 293)), the “Average luminescence (cps) of 3 wells” value is listed as 178133 cps.

Regarding `CCCCCCCCCC(=O)OCC(COC(=O)CCCCCCCCC)(COC(=O)CCCCN(C)C)COC(=O)CCC(CCC)C(CCC)CCC` (stereo not shown) [Example 16, 2-(((5-(Dimethylamino)pentanoyl)oxy)methyl)-2-(((4,5-dipropyloctanoyl)oxy)methyl)propane-1,3-diyl didecanoate], the “Rate of Col1a1 knockdown” value in the data set on Col1a1 gene is on record as 74%. In data set [1], the Rate of encapsulation is given as 96%, the Particle size is 103 nm and the “Col1a1 siRNA + FVII siRNA concentration” value was 124 µg/mL. In the data set with FVII gene, the “Rate of FVII knockdown” value is listed as 15%. Moreover, in data set [2], the Rate of encapsulation is on record as 94%, the mRNA concentration came out at 134 µg/mL and the Average particle size is reported as 109 nm. Moreover, the “Average luminescence (cps) of 3 wells” value in data set [3] (Table 10 (PBS control 293)) is given as 141560 cps.

As to `CCCCCCCC(=O)OCC(COC(=O)CCCCCCC)(COC(=O)CCCN(C)C)COC(=O)CCC(CCCC)C(CCCC)CCCC` (stereo not shown) [Example 19, 3-((4-(Dimethylamino)butanoyl)oxy)-2,2-bis((octanoyloxy)methyl)propyl 4,5-dibutylnonanoate], the “Rate of Col1a1 knockdown” value in the data set with Col1a1 gene turned out to be 71%. In data set [1], the Rate of encapsulation is recorded as 96%, the Particle size is recorded as 89 nm and the “Col1a1 siRNA + FVII siRNA concentration” value was found to be 112 µg/mL. For the same compound, the “Rate of FVII knockdown” value in the data set with FVII gene is 31%.

These data come from US12479791B2, “Cationic lipid” (Takeda Pharmaceutical Company Limited, priority 2018, dated 2025).
